Results on 98 molecules are retold here after PubChem BioAssay AID540268 (Broad Institute, 2011).

Calls of active or inactive are those of the source. How the calls were made is not given here.

The AC50 is the midpoint of the concentration-response curve, whichever way the signal moves.

The first experiment in a line: growth inhibition of yeast carrying parasite Hsp90, dose response, anti-malarial Hsp90 inhibitor project, ATP luminescence, 48 h, cherry-picked samples (AID 540268).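 On activity change, negative = inhibition: 0% = neutral control wells and -100% = positive control wells.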 The conditions noted are these: yeast expressing the parasite Hsp90, ATP luminescence.
Take `COc1cc2cc(C(=O)N3CC(COS(C)(=O)=O)c4ccc(O)cc43)[nH]c2c(OC)c1OC` (stereo not drawn): the AC50 is 1.55 µM.

For the molecule `O=C1C2C3C=CC(CNS(=O)(=O)c4ccccc4)(O3)C2C(=O)N1c1ccc(Cl)cc1` (stereo not drawn), the AC50 was 3.73 µM.

With `O=c1c(Br)ccc(Br)cc1Br`, the AC50 was 0.38 µM.

In the case of `C=CCc1c(C)c(C#N)c2nc3ccccc3n2c1NCCN(C)C`, the AC50 is 4.58 µM.

Regarding `Cc1cc(N2CCN(c3cccc(C)c3C)CC2)nc(-c2ccccc2)n1`, the AC50 was 2.47 µM.

Regarding `Cc1cc(N=Nc2ccccc2C(=O)O)c(C)c(C)c1O`, the AC50 is 4.79 µM.

Consider `O=[N+]([O-])/C=C/c1c(Cl)cccc1Cl`, for which the AC50 is 0.457 µM.

As for `O=C(/C=C/c1cccc(Cl)c1)c1ccc([N+](=O)[O-])o1`, the AC50 was 0.84 µM.

`COc1ccc(C(=O)COC(=O)c2cc([N+](=O)[O-])ccc2N2CCOCC2)c(OC)c1`: the AC50 was 13.8 µM.

With `CCCCCCCC/C=C\CCCCCCCC(=O)NCCO`, the AC50 is 9.25 µM.

For the molecule `Cc1nnc(C)n1/N=C/c1cc(Br)cc(Br)c1O`, the AC50 is 4.35 µM.

On to `CC1CC(C)C(=NNC(N)=O)C(C(O)CC2CCC(=O)NC2=O)C1` (stereo not drawn), for which the AC50 is below 0.195 µM.

Turning to `CN(C)c1ccc(-n2cccc2/C=C/[N+](=O)[O-])cc1`, the AC50 was 4.83 µM.

As to `CC(C)CC(=O)/C(=C\c1ccc(Cl)cc1Cl)n1cncn1`, the AC50 was 1.75 µM.

On to `Cc1cccc2cc(CN(Cc3nnnn3C3CCCCC3)C3CCCC3)c3nnnn3c12`, for which the AC50 is 2.2 µM.

Turning to `CCN1C(=O)/C(=C\C(=O)c2cccs2)c2cc(Br)ccc21`, the AC50 was 4.28 µM.

Turning to `Cn1nnnc1N=N/C(=N/Nc1ccccc1)c1ccccc1`, the AC50 was 3.2 µM.

In the case of `CCC(=O)OCOc1ccc(/C=C2/CCC(CN(C)C)C2=O)cc1` (stereo not drawn), the AC50 was 2.89 µM.

`O=[N+]([O-])c1ccc(NC(c2ccccc2)c2ccc3cccnc3c2O)cc1` (stereo not drawn): the AC50 was below 0.195 µM.

Turning to `Nc1cc2c(cc1[N+](=O)[O-])-c1ccccc1C2=NO`, the half-maximal activity concentration (AC50) was 8.64 µM.

With `CC(C)C1Nc2c(O)cc(Cl)c([N+](=O)[O-])c2C2C=CCC21` (stereo not drawn), the AC50 is 6.63 µM.

As to `CCOC(=O)c1cc([N+](=O)[O-])c([N+](=O)[O-])cc1NC(C)=O`, the AC50 is 2.08 µM.

On to `COc1ccc(S(=O)(=O)NC2CC3CCC2C3)cc1Cl` (stereo not drawn), for which the AC50 is 1.56 µM.

In the case of `O=[N+]([O-])c1ccc(S(=O)(=O)c2cccc(C(F)(F)F)c2)nc1`, the AC50 is 2.52 µM.

As for `COc1ccc2sc(-c3ccccc3OC)c(-c3ccc(O)cc3)c2c1`, the AC50 was 8.46 µM.

In the case of `Oc1ccccc1-c1nc(NC2CCCC2)c2ccccc2n1`, the AC50 was 4.26 µM.

Regarding `Oc1c(CN2CCc3ccccc3C2)cc(Cl)c2cccnc12`, the AC50 is 7.82 µM.

`O=C(/C=C/c1ccccc1[N+](=O)[O-])c1ccccc1Br`: the AC50 is 3.2 µM.

Take `COC(=O)C1CN(C#N)N(c2ccc(Cl)cc2)C12c1ccccc1-c1ccccc12` (stereo not drawn): the AC50 is 4.07 µM.

Take `COC(=O)c1cc(=O)n(-c2ccc(F)cc2)c(=Nc2ccc(F)cc2)s1`: the AC50 was 13.9 µM.

Regarding `C/C(=N\Nc1ncc(Cl)cc1Cl)c1ccccn1`, the AC50 was 1.8 µM.

For `C/C(=N\NC(=O)c1cc2ccccc2cc1O)c1ccccn1`, the AC50 is 8.31 µM.

For `CCCCCCC(Cl)(Cn1ccnc1)c1ccccc1` (stereo not drawn), the AC50 was 8.41 µM.

`O=C1C=CC(=Nc2ccc(F)cc2)O1`: the half-maximal activity concentration (AC50) was 1.24 µM.

In the case of `COc1ccccc1-c1sc2cc3c(cc2c1-c1ccc(O)cc1)OCO3`, the AC50 is 8.2 µM.

Regarding `COc1cccc(/C=C2/CCC(CN(C)C)C2=O)c1` (stereo not drawn), the AC50 was 7.93 µM.

On to `CN(C)C(=S)SSC(=S)N(C)C`, for which the AC50 is 3.96 µM.

In the case of `COc1ccc2c(c1)OC[C@H]1[C@H]2N2C(=O)c3cc(Cl)ccc3NC(=O)[C@@]2(C)[C@H]1c1ccccc1`, the AC50 was 1.12 µM.

`CC(C)(C)C(=O)NC(=S)NNC(=O)c1sc2ccccc2c1Cl`: the AC50 was 7.72 µM.

Take `O=c1c(-c2ccccc2)c(-c2ccccc2)oc2cc(O)cc(O)c12`: the AC50 was 8.72 µM.

`CSC(=S)NN=C(C)c1cccc(C)n1`: the AC50 was 15.6 µM.

As for `CC(=NNC(=S)N1CC2CCC(CC2)C1)c1cnccn1`, the AC50 is below 0.195 µM.

For `Cc1cc(NC(c2ccc(Cl)cc2)c2ccc3cccnc3c2O)no1` (stereo not drawn), the AC50 was 4.2 µM.

As for `COc1ccc(-c2nn(-c3ccccc3)cc2C(=O)N2CCN(S(=O)(=O)c3ccccc3[N+](=O)[O-])CC2)cc1`, the AC50 was 4.14 µM.

For the molecule `CC1=NOC(=O)/C1=C/c1ccc(-c2ccc(Cl)cc2)o1`, the AC50 is 2.43 µM.

As to `Cc1[nH]oc(=O)c1N=Nc1c(Cl)cccc1Cl`, the AC50 is 24.9 µM.

Turning to `COC(=O)C1=C(C(=O)OC)C2OC1c1cc3ccccc3cc12`, the AC50 is 1.92 µM.

Consider `CC(=O)N(C)c1ccc(OCC(O)Cn2c3ccc(Cl)cc3c3cc(Cl)ccc32)cc1` (stereo not drawn), for which the AC50 is 4.56 µM.

Regarding `COc1ccccc1-c1sc2ccccc2c1-c1ccc(O)cc1`, the AC50 was 3.78 µM.

As to `O=C(/C=C/N1CCOCC1)c1ccc(-c2ccccc2)cc1`, the AC50 was 4.23 µM.

`COc1cc(N2C(=O)C=CC2=O)c(OC)cc1Cl`: the concentration at half-maximal activity (AC50) is 1.77 µM.

Take `COc1ccc(Nc2cnn(-c3nc4ccccc4s3)c(=O)c2Cl)cc1`: the AC50 was 3.21 µM.

In the case of `N#C/C(=C\c1cccc(Oc2ccccc2)c1)C(=O)N1CCOCC1`, the AC50 was 8.86 µM.

With `CCN1/C(=C\c2ccc3cc(C)ccc3[n+]2CC)Sc2cc(C)c(C)cc21`, the AC50 was 3.51 µM.

Turning to `Cc1ccc(N2C(=O)C3C4C=CC(CNC(=S)Nc5cccc(Cl)c5)(O4)C3C2=O)cc1` (stereo not drawn), the AC50 is 8.74 µM.

For `O=C(O)c1cccc(NN=C2c3ccccc3-c3ccccc32)c1`, the AC50 is 5.71 µM.

As to `O=C1CC(c2ccccc2)=NN1c1nc(-c2ccccc2)cs1`, the AC50 was 1.14 µM.

As to `O=S1(=O)C=C(Sc2nnc(-c3ccccc3)o2)c2ccccc21`, the AC50 is 3.57 µM.

As for `CCOC(=O)/C(=C/c1ccc(OC(=O)c2ccccc2)cc1)C(C)=O`, the AC50 is 1.43 µM.

In the case of `O=[N+]([O-])c1cnc(Sc2ccncn2)s1`, the AC50 was 3.02 µM.

As to `CCCC(=O)NC(c1ccccc1)c1ccc2cccnc2c1O` (stereo not drawn), the AC50 is 4.7 µM.

Regarding `COc1ccc(NC(=O)C2CCCN2S(=O)(=O)c2cccc3cccnc23)c(OC)c1` (stereo not drawn), the AC50 was 1.31 µM.

With `O=C(NCCCSc1ccccc1)c1cc(Br)ccc1O`, the concentration at half-maximal activity (AC50) was 7.37 µM.

Take `O=[N+]([O-])c1ccc(C=Nc2cccc3ccccc23)s1`: the AC50 is 8.33 µM.

Regarding `C[C@H]1C[C@@H](C)C(=O)[C@@H]([C@H](O)CC2CC(=O)NC(=O)C2)C1`, the AC50 is below 0.195 µM.

In the case of `COc1ccc(OC)c(N2C(=O)NC(=O)/C(=C/c3ccc([N+](=O)[O-])s3)C2=O)c1`, the AC50 was 4.26 µM.

As for `CC(=NNC(=S)N(Cc1ccccn1)Cc1ccccn1)c1cnccn1`, the AC50 is 3.95 µM.

`O=C(Nc1ccccc1N1CCOCC1)c1ccc([N+](=O)[O-])o1`: the AC50 was 4.41 µM.

On to `C=CC(C)(C)c1c(O)c(CC=C(C)C)c(O)c2c(=O)c3ccc(O)c(O)c3oc12`, for which the AC50 is 6.76 µM.

Take `COC1CCC(OC2CC(C3(C)CCC4(CC(O)C(C)C(C(C)/C=C(\C)C(=O)C(C)CC(C)C(=O)O)O4)O3)OC3(OC(C4OC(O)(CO)C(C)CC4C)CC3C)C2C)OC1C` (stereo not drawn): the AC50 was 4.84 µM.

For `Oc1c(C(Nc2nc3ccccc3s2)c2ccco2)ccc2cccnc12` (stereo not drawn), the AC50 was 24.8 µM.

As for `CN(C)/C=C/C(=O)c1ccc(Oc2ccccc2)cc1`, the AC50 is 3.92 µM.

In the case of `COc1ccc(-c2nn(-c3ccccc3)cc2C(=O)N2CCN(S(=O)(=O)c3cccc(F)c3)CC2)cc1`, the AC50 was 1.15 µM.

On to `COc1ccc2c(c1)c(=Cc1ccc(N(C)C)cc1)c1cc(-c3ccccc3)[n+](C)n12`, for which the AC50 is 6.32 µM.

As to `CCOC(=O)c1c(-n2c(C)cc(C=C3C(=O)NC(=S)NC3=O)c2C)sc2c1CCCC2`, the AC50 is 2.99 µM.

`COc1ccc(OC)c(N2C(=O)NC(=O)/C(=C\c3ccc([N+](=O)[O-])s3)C2=O)c1`: the AC50 is 5.48 µM.

As to `COC(=O)C1=C(C(=O)OC)SC2(S1)C(C(=O)OC)=C(C(=O)OC)Sc1c2ssc1=O`, the AC50 is 8.87 µM.

Regarding `Cc1ccc(N2C(=O)C3C4C=CC(CNC(=S)Nc5ccc(Cl)cc5)(O4)C3C2=O)cc1` (stereo not drawn), the AC50 was 11.9 µM.

Regarding `CCOc1ccccc1N1CCN(C(=O)c2cccc(-c3ccc(O)cc3)c2)CC1`, the AC50 is 5.08 µM.

On to `CC(C)CC(=O)NC(c1cccs1)c1ccc2cccnc2c1O` (stereo not drawn), for which the AC50 was 2.72 µM.

Regarding `CCCCC(=O)NC(c1ccccc1OC)c1ccc2cccnc2c1O` (stereo not drawn), the AC50 was 4.45 µM.

Consider `O=[N+]([O-])c1cc(CN2CCN(c3cccc(C(F)(F)F)c3)CC2)c2cccnc2c1O`, for which the AC50 is 4.42 µM.

Consider `Cc1ccc(S(=O)(=O)Nc2ccc3ccccc3c2[N+](=O)[O-])cc1`, for which the AC50 was 7.36 µM.

In the case of `O=[N+]([O-])c1cc(Cc2ccccc2)cc(C=Nc2ccc(N3CCOCC3)cc2)c1O`, the half-maximal activity concentration (AC50) is 3.46 µM.

On to `Cc1ccc(CSc2nc3ccsc3c(=O)n2Cc2ccccn2)cc1`, for which the AC50 is 9.62 µM.

As for `O=C(Nc1nc(-c2ccco2)c(-c2ccco2)s1)c1ccco1`, the AC50 is 6.08 µM.

Turning to `Cc1c(Cl)sn(-c2ccc(Cl)cc2)c1=O`, the AC50 is below 0.195 µM.

Consider `CCCCCCCCOC(=O)c1cc([N+](=O)[O-])c(Sc2ncnc3nc[nH]c23)c([N+](=O)[O-])c1`, for which the AC50 was 1.4 µM.

On to `Cc1ccc(S(=O)(=O)c2ccc([N+](=O)[O-])cn2)cc1`, for which the AC50 is 3.87 µM.

With `CCC(=O)NC(c1ccc(C)cc1)c1ccc2cccnc2c1O` (stereo not drawn), the AC50 is 3.48 µM.

For the molecule `CCOC(=O)c1ccc(NC(=O)CC2C(=O)OCCN2CC)cc1` (stereo not drawn), the AC50 is 4.28 µM.

Take `O=c1c2c3c(sc2ncn1/N=C/c1ccc([N+](=O)[O-])o1)CCCC3`: the AC50 is 2.66 µM.

As to `CCOCCCNC1=C(Cl)C(=O)c2ccccc2C1=O`, the AC50 is 4.93 µM.

Turning to `Cc1cc(C)c2c(N=NN(C)C)[nH]nc2n1`, the AC50 is 3.92 µM.

Regarding `COc1ccc(N=Cc2cc(Cc3ccccc3Cl)cc([N+](=O)[O-])c2O)cc1OC`, the AC50 was 1.5 µM.

Regarding `O=C(N/N=C/c1ccccn1)c1cc(-c2ccc(Cl)cc2)nc2ccccc12`, the AC50 was 8.57 µM.

For `COc1cccc(F)c1C(C[N+](=O)[O-])c1c(N)n(C)c(=O)n(C)c1=O` (stereo not drawn), the AC50 is 4.3 µM.

Staying with this experiment, now noted: yeast expressing the parasite Hsp90, ATP luminescence, at 26 µM (top of the series).
On to `CCOc1ccc(S(=O)(=O)NCc2ccccn2)c(C)c1C`, for which the activity change, negative = inhibition was 14.4% (inactive).
